# “And” between values parts separate entries of the source, which are not always exact repeats. Equal entries are not always repeated.
# Assays:
# [1] = test system: 6 hr MRSA ATCC 1556 biofilm; format: cell-based, Staphylococcus aureus; settings: ATCC 1556, 6 h
# [2] = test system: mature (120 h) MRSA ATCC 1556 biofilm; format: cell-based, Staphylococcus aureus; settings: ATCC 1556, 120 h
# [3] = test system: preformed C. albicans biofilm; settings: ref Woodburn et al., under review; cited from earlier work
# [4] = test system: C. parapsilosis Y-1761; experiment: microbe, parasite or virus in culture; format: cell-based; settings: Lodderomyces parapsilosis, Y1761, 24-h incubation, mean of 3 replicates from 2 independent experiments, read-out: Minimum Inhibitory Concentration (MIC)
# Method: (§1) Strains were obtained from American Type Culture Collection (ATCC, Manassas, VA) or the clinical isolate collection at Trideum Biosciences (Frederick, MD, USA). Bioluminescence strains of P. aeruginosa 19660, transfected with the Xen5 luciferase gene, and S. aureus ATCC® 49525™ (Wright), transfected with the Xen36 luciferase gene, were obtained from Perkin Elmer (Hopkinton, MA).
# (§2) A single colony was aseptically picked from an agar overlay and released in 25–30 mL of pre-warmed trypticase soy broth in a culture flask. Each culture was incubated overnight in a 37°C incubator. […] Pathogen growth was measured by absorbance at 600 nm. Four replicas were included for each test agent concentration. […]
# [5] = test system: C. parapsilosis Y-1763; experiment: microbe, parasite or virus in culture; format: cell-based; settings: Lodderomyces parapsilosis, Y1763, 24-h incubation, mean of 3 replicates from 2 independent experiments, read-out: Minimum Inhibitory Concentration (MIC)
# Method: as §1, §2
# [6] = test system: A. baumannii 6043; experiment: microbe, parasite or virus in culture; format: cell-based, Acinetobacter baumannii; settings: Acinetobacter baumannii; A. baumannii 6043; 24-h incubation; mean of 3 replicates from 2 independent experiments; read-out: Minimum Inhibitory Concentration (MIC)
# Method: as §1, §2
# [7] = test system: A. baumannii 6838; experiment: microbe, parasite or virus in culture; format: cell-based, Acinetobacter baumannii; settings: Acinetobacter baumannii; A. baumannii 6838; 24-h incubation; mean of 3 replicates from 2 independent experiments; read-out: Minimum Inhibitory Concentration (MIC)
# Method: as §1, §2
# [8] = test system: A. baumannii ATCC 17978; experiment: microbe, parasite or virus in culture; format: cell-based, Acinetobacter baumannii; settings: Acinetobacter baumannii, ATCC17978; A. baumannii ATCC 17978; 24-h incubation; mean of 3 replicates from 2 independent experiments; read-out: Minimum Inhibitory Concentration (MIC)
# Method: as §1, §2
# [9] = test system: K. pneumonia 6066; experiment: microbe, parasite or virus in culture; format: cell-based, Klebsiella pneumoniae; settings: Klebsiella pneumoniae; K. pneumonia 6066; 24-h incubation; mean of 3 replicates from 2 independent experiments; read-out: Minimum Inhibitory Concentration (MIC)
# Method: as §1, §2
# [10] = test system: K. pneumonia 6069; experiment: microbe, parasite or virus in culture; format: cell-based, Klebsiella pneumoniae; settings: Klebsiella pneumoniae; K. pneumonia 6069; 24-h incubation; mean of 3 replicates from 2 independent experiments; read-out: Minimum Inhibitory Concentration (MIC)
# Method: as §1, §2
# [11] = test system: K. pneumonia ATCC 10031; experiment: microbe, parasite or virus in culture; format: cell-based, Klebsiella pneumoniae; settings: Klebsiella pneumoniae, ATCC10031; K. pneumonia ATCC 10031; 24-h incubation; mean of 3 replicates from 2 independent experiments; read-out: Minimum Inhibitory Concentration (MIC)
# Method: as §1, §2
# [12] = test system: P. aeruginosa 6186; experiment: microbe, parasite or virus in culture; format: cell-based, Pseudomonas aeruginosa; settings: Pseudomonas aeruginosa; P. aeruginosa 6186; 24-h incubation; mean of 3 replicates from 2 independent experiments; read-out: Minimum Inhibitory Concentration (MIC)
# Method: as §1, §2
# [13] = test system: P. aeruginosa ATCC 19660; experiment: microbe, parasite or virus in culture; format: cell-based, Pseudomonas aeruginosa; settings: Pseudomonas aeruginosa, ATCC19660; P. aeruginosa ATCC 19660; 24-h incubation; mean of 3 replicates from 2 independent experiments; read-out: Minimum Inhibitory Concentration (MIC)
# Method: as §1, §2
# [14] = test system: P. aeruginosa ATCC 27853; experiment: microbe, parasite or virus in culture; format: cell-based, Pseudomonas aeruginosa; settings: Pseudomonas aeruginosa, ATCC27853; P. aeruginosa ATCC 27853; 24-h incubation; mean of 3 replicates from 2 independent experiments; read-out: Minimum Inhibitory Concentration (MIC)
# Method: as §1, §2
# [15] = test system: MRSA 6313; experiment: microbe, parasite or virus in culture; format: cell-based, Staphylococcus aureus; settings: Staphylococcus aureus; MRSA 6313; 24-h incubation; mean of 3 replicates from 2 independent experiments; read-out: Minimum Inhibitory Concentration (MIC)
# Method: as §1, §2
# [16] = test system: MRSA 6381; experiment: microbe, parasite or virus in culture; format: cell-based, Staphylococcus aureus; settings: Staphylococcus aureus; MRSA 6381; 24-h incubation; mean of 3 replicates from 2 independent experiments; read-out: Minimum Inhibitory Concentration (MIC)
# Method: as §1, §2
# [17] = test system: MRSA ATCC 33592; experiment: microbe, parasite or virus in culture; format: cell-based, Staphylococcus aureus; settings: Staphylococcus aureus; MRSA ATCC 33592; 24-h incubation; mean of 3 replicates from 2 independent experiments; read-out: Minimum Inhibitory Concentration (MIC)
# Method: as §1, §2
# [18] = test system: S. aureus 6061; experiment: microbe, parasite or virus in culture; format: cell-based, Staphylococcus aureus; settings: Staphylococcus aureus; S. aureus 6061; 24-h incubation; mean of 3 replicates from 2 independent experiments; read-out: Minimum Inhibitory Concentration (MIC)
# Method: as §1, §2
# [19] = test system: S. aureus B-767; experiment: microbe, parasite or virus in culture; format: cell-based, Staphylococcus aureus; settings: Staphylococcus aureus, B767; S. aureus B-767; 24-h incubation; mean of 3 replicates from 2 independent experiments; read-out: Minimum Inhibitory Concentration (MIC)
# Method: as §1, §2
# [20] = test system: S. epidermis ATCC 51625; experiment: microbe, parasite or virus in culture; format: cell-based, S. epidermidis; settings: Staphylococcus epidermidis, ATCC51625; S. epidermis ATCC 51625; 24-h incubation; mean of 3 replicates from 2 independent experiments; read-out: Minimum Inhibitory Concentration (MIC)
# Method: as §1, §2
# [21] = test system: E. cloacae 6053; experiment: microbe, parasite or virus in culture; format: cell-based; settings: Enterobacter cloacae; E. cloacae 6053; 24-h incubation; mean of 3 replicates from 2 independent experiments; read-out: Minimum Inhibitory Concentration (MIC)
# Method: as §1, §2
# [22] = test system: E. cloacae 6054; experiment: microbe, parasite or virus in culture; format: cell-based; settings: Enterobacter cloacae; E. cloacae 6054; 24-h incubation; mean of 3 replicates from 2 independent experiments; read-out: Minimum Inhibitory Concentration (MIC)
# Method: as §1, §2
# [23] = test system: bioluminescent P. aeruginosa 19660; experiment: Bioluminescence time-kill assay; format: cell-based, Pseudomonas aeruginosa; settings: antibiotics after 30 min incubation, triplicates, two independent experiments
# Method: as §1
# (§3) Non-invasive real-time evaluation of viability, mammalian, and bacterial cells, was performed using bioluminescent human keratinocytes (HaCaT, AddexBio, San Diego, CA) and murine L929 fibroblast cells (ATCC, Manassas, VA). The bioluminescent variants were constructed by transfection with a luciferase gene (RediFect Red-Fluc-Puromycin, Catalog #CL596002) (Hamblin et al., [2003]). […] Each concentration was performed in triplicate. Bioluminescence imaging was performed at pre-specified times (0, 15, and 30 min and 1, 3, 5, 8, and 24 h) and compared to concurrently run vehicle-controls. The 96-well plate was positioned on the stage (12.5-cm field of view) within the in vivo Imaging System (IVIS) imaging system (Caliper Life Sciences, Inc., Hopkinton, MA, USA), with an open emission filter, binning of 4, and f-stop 1, and a 1-min exposure time. The resultant photons emitted from the live cells were quantified using Living Image® software (version 4.3, Caliper Life Sciences, Inc.). […]
# [24] = test system: bioluminescent S. aureus 49525; experiment: Bioluminescence time-kill assay; format: cell-based, Staphylococcus aureus; settings: antibiotics after 30 min incubation, triplicates, two independent experiments
# Method: as §1, §3
structure (smiles),measurement,setting,value
CCCCCCCCCC(=O)N[C@@H](Cc1c[nH]c2ccccc12)C(=O)N[C@H](CC(N)=O)C(=O)N[C@@H](CC(=O)O)C(=O)N[C@@H]1C(=O)NCC(=O)N[C@@H](CCCN)C(=O)N[C@@H](CC(=O)O)C(=O)N[C@H](C)C(=O)N[C@@H](CC(=O)O)C(=O)NCC(=O)N[C@H](CO)C(=O)N[C@@H]([C@H](C)CC(=O)O)C(=O)N[C@@H](CC(=O)c2ccccc2N)C(=O)O[C@@H]1C [daptomycin],"EC90, biofilm CFU",[1],> 100 µg/mL
same,EC90 (concentration to reduce biofilm by 90%),[2],~ 100 μg/mL
OC(Cn1cncn1)(Cn1cncn1)c1ccc(F)cc1F [fluconazole],Killing fungi in preformed C. albicans biofilm and preventing biofilm formation,[3],markedly ineffective
"C[C@@H]1[C@H](O)[C@@H](C)/C=C/C=C/C=C/C=C/C=C/C=C/C=C/[C@H](O[C@@H]2O[C@H](C)[C@@H](O)[C@H](N)[C@@H]2O)C[C@@H]2O[C@](O)(C[C@@H](O)C[C@@H](O)[C@H](O)CC[C@@H](O)C[C@@H](O)CC(=O)O[C@H]1C)C[C@H](O)[C@H]2C(=O)O [Amphotericin b, amphotericin B]",MIC,[4],1 µM and 1.08 µg/mL
same,MIC,[5],1 µM and 1.08 µg/mL
"NC[C@H]1O[C@H](O[C@H]2[C@H](O)[C@@H](O[C@H]3O[C@H](CO)[C@@H](O)[C@H](N)[C@H]3O)[C@H](N)C[C@@H]2N)[C@H](N)C[C@@H]1O [Tobramycin, tobramycin]",MIC,[6],68.5 µM
same,MIC,[7],4.3 µM
same,MIC,[8],4.3 µM
same,MIC,[9],8.6 µM
same,MIC,[10],4.3 µM
same,MIC,[11],4.3 µM
same,MIC,[12],> 274 µM
same,MIC,[13],> 274 µM
same,MIC,[14],4.3 µM
same,MIC,[15],> 274 µM
same,MIC,[16],274 µM
same,MIC,[17],137 µM
same,MIC,[18],8.6 µM
same,MIC,[19],> 274 µM
same,MIC,[20],4.3 µM
same,MIC,[21],68.5 µM
same,MIC,[22],137 µM
same,Bactericidal activity in time-kill assay,[23],no trace of antibacterial activity
same,Bactericidal activity in time-kill assay,[24],no trace of antibacterial activity

# — article PMC6667648 (Frontiers in Microbiology, 2019)
